Experimental data as given in ChEMBL document CHEMBL6096673, “In Pursuit of Lead Innovation: Pharmaceutically Important and Distinct Amide-Free Succinate Dehydrogenase Inhibitors” (J Med Chem, 2025).
Values after ≈ are worked out from the molar mass of the structure shown.

Columns and labels:
Sclerotinia sclerotiorum [1] = assay: Antifungal activity against Sclerotinia sclerotiorum; type: functional, organism-based
Liver carboxylesterase = biological target: T1, Liver carboxylesterase (Sus scrofa, UniProt Q29550); assay: Inhibition of porcine liver carboxylesterase
T1 sequence (Q29550 whole entry): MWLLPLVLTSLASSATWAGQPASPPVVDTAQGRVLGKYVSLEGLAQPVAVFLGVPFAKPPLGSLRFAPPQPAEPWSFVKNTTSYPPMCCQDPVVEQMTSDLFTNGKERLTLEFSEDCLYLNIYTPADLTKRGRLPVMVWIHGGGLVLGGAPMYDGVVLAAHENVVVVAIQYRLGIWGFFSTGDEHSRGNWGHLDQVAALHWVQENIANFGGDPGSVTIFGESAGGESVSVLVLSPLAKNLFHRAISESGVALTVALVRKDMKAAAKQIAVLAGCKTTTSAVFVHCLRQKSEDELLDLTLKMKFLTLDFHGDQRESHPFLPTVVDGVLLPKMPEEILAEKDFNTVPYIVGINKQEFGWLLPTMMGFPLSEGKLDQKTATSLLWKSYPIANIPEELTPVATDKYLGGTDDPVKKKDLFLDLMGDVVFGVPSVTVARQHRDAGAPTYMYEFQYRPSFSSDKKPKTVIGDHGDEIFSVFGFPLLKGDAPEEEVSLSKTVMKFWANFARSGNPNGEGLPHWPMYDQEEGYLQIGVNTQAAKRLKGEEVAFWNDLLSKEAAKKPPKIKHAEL

Rhizoctonia solani = assay: Antifungal activity against Rhizoctonia solani; type: functional, organism-based
[2] = Binding affinity to carboxylesterase (unknown origin) assessed as inhibition constant by fluorescence analysis; parameters: species or system Homo sapiens
Sclerotinia sclerotiorum [3] = assay: Antifungal activity against Sclerotinia sclerotiorum assessed as inhibition of fungal growth; type: functional, organism-based
Botrytis cinerea = assay: Antifungal activity against Botrytis cinerea; type: functional, organism-based
Alternaria solani = assay: Antifungal activity against Alternaria solani; type: functional, organism-based
Fusarium graminearum = assay: Antifungal activity against Gibberella zeae; type: functional, organism-based
Plasmodium falciparum = assay: Antiplasmodial activity against Plasmodium falciparum; type: functional, organism-based
[4] = test system: Trichophyton mentagrophytes; assay: Antifungal activity against Trichophyton mentagrophytes; type: functional, organism-based

With `CCOC(=O)C(C#N)C(CC(=O)c1ccc(Br)cc1)c1ccco1` (configuration not stated) the EC50 (Sclerotinia sclerotiorum [1]) was 3.3 µg/mL (≈ 8.46 µM).
With `CC[C@@H](C)C[C@H](C)C(=O)c1c(O)nc(OC)c(OC)c1O` the IC50 (Liver carboxylesterase) was 2100 nM.
Work on `Cn1cc(/C=N\Oc2cccc(I)c2)c(C(F)F)n1` yielded an IC50 (Rhizoctonia solani) of 1.43 µg/mL (≈ 3.79 µM).
In the case of `C=CCC/C=C\C=C/CCCCCC[C@H]1CC[C@H]([C@@H]2CC[C@@H](CC(=O)OC)OO2)O1`, the IC50 (Liver carboxylesterase) is reported as < 1000 nM.
`Cn1cc(/C=N/Oc2cccc(F)c2)c(C(F)F)n1` showed an IC50 (Rhizoctonia solani) of 2.94 µg/mL (≈ 10.9 µM).
For `Cn1cc(/C=N\Oc2cccc(F)c2)c(C(F)F)n1`, the IC50 (Rhizoctonia solani) was 1.35 µg/mL (≈ 5.01 µM).
Compound `Cc1ccc(-c2cc(-c3ccc(Cl)cc3)nc(-n3cccn3)n2)o1` has an EC50 (Sclerotinia sclerotiorum [1]) of 0.08 µg/mL (≈ 0.238 µM).
`Cc1ccc(-c2cc(-c3ccco3)nc(C)n2)cc1` gave an EC50 (Sclerotinia sclerotiorum [1]) of 0.07 µg/mL (≈ 0.28 µM).
With `Cn1cc(/C=N\Oc2cccc(Br)c2)c(C(F)F)n1` the IC50 (Rhizoctonia solani) was 0.21 µg/mL (≈ 0.636 µM).
Work on `COc1[nH]c(=O)c(C(=O)[C@@H](C)C[C@H](C)[C@@H](Cl)CCl)c(O)c1OC` [ATPENIN A5] yielded an IC50 (Liver carboxylesterase) of 14 nM.
`COc1nc(O)c(C(=O)[C@@H](C)C[C@@H](C)[C@@H](Cl)CCl)c(O)c1OC` showed an IC50 (Liver carboxylesterase) of 7 nM.
For `COc1nc(O)c(C(=O)[C@@H](C)C[C@H](C)[C@H](C)Cl)c(O)c1OC`, the IC50 (Liver carboxylesterase) was 110 nM.
With `COc1nc(O)c(C(=O)[C@H](C)C[C@H](C)[C@@H](Cl)CCl)c(O)c1OC` the IC50 (Liver carboxylesterase) was 2000 nM.
With `COC(=O)C1=C(C)OC(N)=C(C#N)C1c1ccc(Cl)s1` (configuration not stated) the IC50 (Rhizoctonia solani) was 1.06 µg/mL (≈ 3.41 µM).
For `O=C(CC(=O)C(F)(F)F)c1cccs1`, the Ki [2] was 610 nM.
In the case of `COc1nc(O)c(C(=O)[C@@H](C)C[C@H](C)[C@H](Cl)CCl)c(O)c1OC`, the IC50 (Liver carboxylesterase) is reported as 22.4 nM.
`COc1nc(O)c(C(=O)CC[C@H](C)[C@@H](Cl)CCl)c(O)c1OC` showed an IC50 (Liver carboxylesterase) of 315 nM.
`COc1cc(-c2ccc(Br)o2)cc(-c2ccc(Br)cc2)n1` gave an IC50 (Sclerotinia sclerotiorum [3]) of 1.15 µg/mL (≈ 2.81 µM).
For `O=C(NCCc1ncc(C(F)(F)F)cc1Cl)c1ccccc1C(F)(F)F` [FLUOPYRAM], the IC50 (Liver carboxylesterase) was < 1000 nM.
Compound `Fc1ccc(C2C=C(c3ccc4c(c3)OCO4)NC(=S)N2)cc1` (configuration not stated) has an EC50 (Botrytis cinerea) of 0.44 µg/mL (≈ 1.34 µM), an EC50 (Alternaria solani) of 0.07 µg/mL (≈ 0.213 µM) and an EC50 (Fusarium graminearum) of 0.57 µg/mL (≈ 1.74 µM).
For `C=CCC/C=C\C=C/CCCCCCC1CC[C@@H]([C@@H]2CC[C@@H](CC(=O)OC)OO2)O1` (single isomer, unassigned), the IC50 (Liver carboxylesterase) was < 1000 nM.
For `Cn1cc(/C=N/Oc2cccc(Br)c2)c(C(F)F)n1`, the IC50 (Rhizoctonia solani) was 4.53 µg/mL (≈ 13.7 µM).
Compound `Cn1cc(/C=N/Oc2cccc(I)c2)c(C(F)F)n1` has an IC50 (Rhizoctonia solani) of 1.57 µg/mL (≈ 4.16 µM).
For `Cc1cc(O)c2c(c1)O[C@@]1(C)CC[C@H]3C(C)(C)CCC[C@]34CO[C@@H]2[C@H]41` [SICCANIN], the IC50 (Plasmodium falciparum) was 8400 nM and the IC50 [4] was 0.3 µg/mL (≈ 0.876 µM).
